Here are results for nine compounds from patent publication US20250136564A1, “PROTEIN TYROSINE PHOSPHATASE INHIBITORS AND USES THEREOF” (Nerio Therapeutics, Inc., priority 2022, published 2025).

SMILES strings stand for the structures.

For assay [1], the target named is full-length human PTPN2 (TC45) (1-387) protein (Homo sapiens (Human), UniProt P17706). As to the kind of experiment: Enzymatic assay, full-length PTPN2 DiFMUP assay. The conditions noted are these: 0.5 nM PTPN2, 100 μM DiFMUP, 30 min at room temperature. It is filed as biochemical. The text has this: Example A: Enzymatic Assay Used to Determine Potency of PTPN2 Inhibitors
Compounds were subsequently added using a Tecan D300e dispenser. […] A four-parameter curve fit was used to determine IC50 values from % inhibition data.

In assay [2] the test system is murine B16F10 melanoma cell line. Briefly: B16F10 IFNγ-induced cellular growth inhibition assay (xCELLigence RTCA). It is filed as cell-based. The note with it: Mus musculus, B16-F10, 48 h; read-out: B16 IFNγ Mediated Growth Inhibition Assay: AVG IC50. The protocol: Example B: B16F10 Cellular Growth Inhibition Assay
Compound activity was determined using an interferon gamma (IFNγ)-induced cellular growth inhibition assay with the murine B16F10 melanoma cell line on an Agilent xCELLigence Real-Time Cell Analysis platform (RTCA). RTCA E-Plate View 96 plates (Agilent, 300601010) were pre-equilibrated with 50 μL of assay media (DMEM+10% FBS, Gibco 10566-024, Gibco 10082-147) at 37° C., in a humidified incubator before taking an initial measurement of impedance (sweep). B16F10 cells cultured in assay media were dissociated with TrypLE Express (Gibco 12605-010) for five minutes at 37° C., diluted in 3 volumes of assay buffer, centrifuged for 5 minutes at 500×g at room temperature before diluting cells to 7,700 cells/mL in assay media, plating 130 μL/well (1,000 cells/well) in the inner 60 wells of the assay plate, and adding 150 μL of assay media to the outer wells of the plate. Cells were incubated at room temperature for 20 min to allow cells to settle before placing them in the xCELLigence reader and incubating overnight at 37° C., sweeping wells every 15 minutes. After 24 hours, well readings were paused, plates were removed from the incubator and compounds were added using a Tecan D300e dispenser. All wells were normalized to a final concentration of 0.5% DMSO. Following a 30 min incubation at 37° C., recombinant mouse IFNγ (R&D Systems™ 485 MI100) was diluted to 10 ng/ml in assay media and 20 μL was added to assay wells (1 ng/mL final concentration). Assay plates were placed in the xCELLigence reader and swept every 15 minutes. After 48 hours, well readings were normalized to the time point immediately preceding compound addition and the area under the growth curve (AUC) was calculated by the RTCA software and exported.

Chain of full-length human PTPN2 (TC45) (1-387) protein (P17706 other isoform, or with tags, fused parts or gaps): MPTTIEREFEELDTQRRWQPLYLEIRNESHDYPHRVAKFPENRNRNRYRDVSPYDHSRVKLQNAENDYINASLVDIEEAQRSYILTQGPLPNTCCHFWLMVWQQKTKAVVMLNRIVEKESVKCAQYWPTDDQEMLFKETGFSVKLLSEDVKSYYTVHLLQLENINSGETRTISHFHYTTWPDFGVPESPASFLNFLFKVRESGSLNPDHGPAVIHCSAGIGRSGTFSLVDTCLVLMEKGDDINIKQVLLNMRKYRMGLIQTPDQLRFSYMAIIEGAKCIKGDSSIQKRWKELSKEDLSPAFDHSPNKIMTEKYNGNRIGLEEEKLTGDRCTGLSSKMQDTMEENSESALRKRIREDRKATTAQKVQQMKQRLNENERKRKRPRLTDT

Turning to `CN1CCCc2c1cc(O)c(N1CC(=O)NS1(=O)=O)c2F` [Example 4, 5-(5-fluoro-7-hydroxy-1-methyl-1,2,3,4-tetrahydroquinolin-6-yl)-1,2,5-thiadiazolidin-3-one 1,1-dioxide], the concentration for half-maximal inhibition (IC50) (commonly the point on the concentration scale where inhibition reaches its midpoint) in assay [1] was determined as 875 nM; in assay [2], 12700 nM.
In assay [1], `CC(C)CCN1CCCc2c1cc(O)c(N1CC(=O)NS1(=O)=O)c2F` [Example 8] yielded an IC50 of 957 nM.
In assay [1], `CC(C)CN1CCCc2c1cc(O)c(N1CC(=O)NS1(=O)=O)c2F` [Example 6] registered an IC50 of 959 nM.
Still for that read-out and setting: with `O=C1CN(c2c(O)cc3c(c2F)CCCN3CCc2ccccc2)S(=O)(=O)N1` [Example 9] the figure was 1620 nM.
Same read-out and setting: with `COc1cc2c(c(F)c1N1CC(=O)NS1(=O)=O)CC(NCCC(C)C)CN2C` (stereo not drawn) [Example 1, 5-(5-fluoro-3-(isopentylamino)-7-methoxy-1-methyl-1,2,3,4-tetrahydroquinolin-6-yl)-1,2,5-thiadiazolidin-3-one 1,1-dioxide] the figure was above 30000 nM; with `CCN1CCCc2c1cc(O)c(N1CC(=O)NS1(=O)=O)c2F` [Example 5], 878 nM.
`O=C1CN(c2c(O)cc3c(c2F)CCCN3)S(=O)(=O)N1` [Example 3, 5-(5-fluoro-7-hydroxy-1,2,3,4-tetrahydroquinolin-6-yl)-1,2,5-thiadiazolidin-3-one 1,1-dioxide]: the 50% inhibitory concentration (IC50) in assay [1] is 131 nM; in assay [2] it was 3330 nM.
`O=C1CN(c2c(O)cc3c(c2F)CCCN3Cc2ccccc2)S(=O)(=O)N1` [Example 7]: half-maximal inhibition in assay [1] (IC50) required 532 nM.
In the case of `CC(C)CCNC1CNc2cc(O)c(N3CC(=O)NS3(=O)=O)c(F)c2C1` (stereo not drawn) [Example 2, 5-(5-fluoro-7-hydroxy-3-(isopentylamino)-1,2,3,4-tetrahydroquinolin-6-yl)-1,2,5-thiadiazolidin-3-one 1,1-dioxide], the IC50 in assay [1] was found to be 13 nM; in assay [2], 1450 nM.
